Test results reported in US10253300B2, “Adapted rhinovirus C” (Wisconsin Alumni Research Foundation, priority 2015, dated 2019).
Entries after “also recorded” stand apart in the source; their conditions may differ.

Assays:
C15a [1] = assay: Inhibition of virus binding and replication by preincubation with heparin, HS or glycans: C15a; type: cell-based, rhinovirus C; conditions: for inhibition of virus binding to HeLa-E8 cells: heparin or HS 1-2 mg/ml preincubation
Experimental: (§1) FIGS. 4A-4E—Heparin and heparan sulfate effects. (A) Virus samples (5×10^5 PFUe) were incubated with heparin (2 mg/ml) or medium alone (no heparin) for 30 min at 34° C., before inoculation of HeLa-E8 cells. After an attachment period (30 min at room temp, 30 min at 34° C.) the cells were washed (3×PBS), harvested and tested by RT-qPCR for the attached virus RNA signals (means±s.d., n≥3). (*) indicates p<0.05 significance (t-test). (B) C15a and C15 K125 (5×10^5 PFUe) were incubated with heparin or heparan sulfate (1 mg/ml) as in A, before HeLa-E8 infections and virus binding assays. (C) The C15a experiment in A was repeated using different doses of heparin in the preincubation. (D) HeLa-E8 cells (12 well-plates) were treated (37° C., 2 h) with the indicated dose (U) of heparinase I before inoculation with C15a virus (5×10^5 PFUe) and tested for virus binding as in A. (E) C15a and recombinant C15 K125/K41 viruses (5×10^5 PFUe) were incubated with heparin (1 mg/ml, 30 min, 34° C.) before inoculation of HeLa-E8 or HeLa-H1 cells. After an attachment period (30 min at room temp, 30 min at 34° C.), the cells were washed with PBS (3×). Cells were harvested and assayed for the attached virus (1 h p.i.) and progeny virus (24 h p.i.) RNA signals by RT-qPCR (means±s.d., n=3).
FIGS. 9A-9B—Glycan effects on virus binding assays. (A) Recombinant C15 or (B) polyclonal C15a were incubated in media with the indicated sialylated glycans (1 mg/ml, see below) before being tested for binding to HeLa-E8 cells. Virus (5×10^5 PFUe) and glycan were mixed (30 min, 34° C.), then added to plated cells (30 min, room temp), before the samples were again incubated at 34° C. for an additional 30 min. The cells were washed (3×) before total RNA was extracted and assayed for C15 titer by RT-qPCR. For SNA and MALII samples, the cells, rather than virus were pretreated (100 μg/ml for 30 min, room temp) before the virus addition step. The plotted values are the averages of duplicate samples (n=2). Glycan reagents include: SLN 2-3 (3′-Sialy-N-acetyllactosamine, V-Labs, Inc), 1 mg/ml; SLN 2-6 (6′-Sialy-N-acetyllactosamine, V-Labs, Inc), 1 mg/ml; SLN 2-8 (Neu5Ac2-8Neu5Ac2-8Neu5Ac-sp-biotin, GlycoTech), 1 mg/ml; GlcNac 1-4 (GlcNAcb1-4GlcNAcb-sp-biotin, GlycoTech), 1 mg/ml; SNA (Sambucus Nigra Lectin, Vector Laboratories), 100 μg/ml; MAUI (Maackia Amurensis Lectin, Vector Laboratories), 100 μg/ml.
(§2) Purified virus (5×10^5 PFUe) was pre-incubated with tested compounds (sialic acid and sugar di- or trisaccharides, heparin or HS) for 30 min at 34° C. before inoculation of HeLa cell monolayers (30 min, room temp; 30 min, 34° C.). Cells were washed three times with PBS, lysed with the RLT buffer (Qiagen) and stored at −80° C. before total RNA extraction and RT-qPCR for C15. For SNA and MAUI samples, the cells, rather than virus were pretreated (100 μg/ml for 30 min, room temp) before the virus addition step. HeLa-E8 cells were washed with PBS containing 1 mM MgCl2 and 1 mM CaCl2 (PBS^++) and incubated for 2 hours at 37° C. with 2.5-10 U of heparinase I in PBS^++ before inoculation with purified virus (10^6 PFUe) for 1 hour at 34° C.

C15 K125 = assay: Inhibition of virus binding by preincubation with heparin or HS: C15 K125; type: cell-based, rhinovirus C; conditions: for inhibition of virus binding to HeLa-E8 cells: heparin or HS 1-2 mg/ml preincubation
Experimental: as §1, §2

C15a [2] = assay: Heparinase I pretreatment of HeLa-E8 cells, virus binding: C15a; type: cell-based, rhinovirus C
Experimental: as §1, with “n=3). […]” for “n=3).”

RV-C15-K125 = assay: Heparinase I treatment, virus binding to HeLa-E8: RV-C15-K125; type: cell-based, rhinovirus C
Experimental: as §2
Receptor specificity switch has been documented for some major receptor group RVs (e.g. RV-A89) that were adapted for growth in ICAM-1-deficient cells by serial or alternate passages in HEp-2 and HeLa cells (Reischl et al., 2001; Vlasak et al., 2005). A HEp-2-adapted RV-A89 variant can utilize HS proteoglycans as a cellular receptor (Vlasak et al., 2005). […] In contrast to RV-A89, RV-C15 adaptation by passaging in HeLa cells occurred in the absence of selective pressure for binding specificity change. This process has also been observed in some other picornaviruses and alphaviruses (Sa-Carvalho et al., 1997; Klimstra et al., 1998; Smit et al., 2002). […]

unadapted C15 virus = assay: Inhibition of virus binding by preincubation with heparin: unadapted C15; type: cell-based, rhinovirus C; conditions: heparin 2 mg/ml preincubation
Experimental: as §1, with “n=3). […]” for “n=3).”

A16 = assay: Inhibition of virus binding by preincubation with heparin: A16; type: cell-based, RV-A; conditions: heparin 2 mg/ml preincubation
Experimental: as §1, with “n=3). […]” for “n=3).”

Ala viruses = assay: Inhibition of virus binding by preincubation with heparin: Ala; type: cell-based; conditions: heparin 2 mg/ml preincubation
Experimental: as §1, with “n=3). […]” for “n=3).”

recombinant C15 K125/K41 = assay: Inhibition of virus binding and replication by preincubation with heparin: recombinant C15 K125/K41; type: cell-based, rhinovirus C; conditions: heparin 1 mg/ml
Experimental: as §1, with “n=3). […]” for “n=3).”

[3] = heparin 2 mg/ml, 30 min 34° C. preincubation, 5×10^5 PFUe, HeLa-E8

Row | Substance | inhibition of virus binding to HeLa-E8 cells (C15a [1]) | inhibition of virus binding to HeLa-E8 cells (C15 K125) | reduction of C15a binding after heparinase I pretreatment of HeLa-E8 cells (C15a [2]; 2.5-10 U heparinase I, 37° C., 2 h) | inhibition of virus binding to HeLa-E8 cells (C15a [2]; heparinase I treatment) | inhibition of virus binding to HeLa-E8 cells (RV-C15-K125) | dose dependence of inhibition of binding (C15a [1]; different doses of heparin in the preincubation, HeLa-E8) | effect of heparin on binding and replication in HeLa-H1 cells (C15a [1]; heparin 1 mg/ml, 1 h and 24 h p.i.) | replication in HeLa-E8 cells despite the heparin treatment (C15a [1]; heparin 1 mg/ml, 24 h p.i.) | reduction of binding titer by heparin (C15a [1]; [3]) | reduction of binding titer by heparin (C15 K125; [3]) | effect of heparin on virus interaction with HeLa-E8 cells (unadapted C15 virus) | effect of heparin on virus interaction with HeLa-E8 cells (A16) | effect of heparin on virus interaction with HeLa-E8 cells (Ala viruses) | effect of heparin on binding and replication in HeLa-H1 cells (recombinant C15 K125/K41; 1 h and 24 h p.i.) | replication in HeLa-E8 cells despite the heparin treatment (recombinant C15 K125/K41; 24 h p.i.)
1 | heparan sulfate [HS] | had this effect; also recorded: inhibited | had this effect; also recorded: inhibited | – | – | – | – | – | – | – | – | – | – | – | – | –
2 | heparinase I | – | – | more than 7 fold | inhibited | inhibited | – | – | – | – | – | – | – | – | – | –
3 | heparin | inhibited | inhibited | – | – | – | dependent upon the dose | abolished | still replicated (to a degree) | 17 fold | 44 fold | not affected | not affected | not affected | abolished | still replicated (to a degree)
